From ChEMBL document CHEMBL1123608, “In vivo antitumor activity of 6-benzyl-1,3-benzodioxole derivatives against the P388, L1210, B16, and M5076 murine models” (1987)

Key:
[1] = Ability to inhibit the dibutyryl-cAMP-induced change of an immature glioma cell to a mature, differentiated astrocyte by in vitro astrocytoma assay at 1 ug/mL dose (Experiment #1) value may range from 0 to 5; format: functional, Mus musculus
Mus musculus [2] = experiment: The percent increase in life span on P388 cells which were inoculated intraperitoneally in CD2F1 mice at 200 mg/kg dose placed at ranking order 3; format: functional; settings: P388, ip, route intraperitoneal
[3] = Ability to inhibit the dibutyryl-cAMP-induced change of an immature glioma cell to a mature, differentiated astrocyte by in vitro astrocytoma assay at 1 ug/mL dose (Experiment #2) value may range from 0 to 5; format: functional, Mus musculus
Mus musculus [4] = experiment: In vivo antitumor activity against the M5076 reticulum cell sarcoma expressed as percent increase in life span at 800 mg/kg doseEach represents a pair of experiments performed with the same control group; format: functional
Mus musculus [5] = experiment: In vivo antitumor activity against the L1210 leukemia cell line expressed as percent increase in life span at 200 mg/kg dose; format: functional; settings: Mus musculus, L1210, dose 200 mg/kg
Mus musculus [6] = experiment: In vivo antitumor activity against the M5076 reticulum cell sarcoma expressed as percent increase in life span at 400 mg/kg dose; format: functional
[7] = Ability to inhibit the dibutyryl-cAMP-induced change of an immature glioma cell to a mature, differentiated astrocyte by in vitro astrocytoma assay at 100 ug/mL dose (Experiment #1) value may range from 51 to 70; format: functional, Mus musculus
Mus musculus [8] = experiment: In vivo antitumor activity against the B16 melanoma cell line expressed as percent increase in life span at 200 mg/kg dose; format: functional
Mus musculus [9] = experiment: In vivo antitumor activity against the L1210 leukemia cell line expressed as percent increase in life span at 400 mg/kg dose; format: functional
Mus musculus [10] = experiment: In vivo antitumor activity against the B16 melanoma cell line expressed as percent increase in life span at 100 mg/kg dose; format: functional
[11] = Ability to inhibit the dibutyryl-cAMP-induced change of an immature glioma cell to a mature, differentiated astrocyte by in vitro astrocytoma assay at 100 ug/mL dose (Experiment #2) value may range from 31 to 50; format: functional, Mus musculus
Mus musculus [12] = experiment: The percent increase in life span on P388 cells which were inoculated intraperitoneally in CD2F1 mice at 200 mg/kg dose placed at ranking order 1; format: functional; settings: P388, ip, route intraperitoneal
Mus musculus [13] = experiment: The percent increase in life span on P388 cells which were inoculated intraperitoneally in CD2F1 mice at 400 mg/kg (tested in the same control) dose placed at ranking order 4; format: functional; settings: P388, ip, route intraperitoneal
[14] = Ability to inhibit the dibutyryl-cAMP-induced change of an immature glioma cell to a mature, differentiated astrocyte by in vitro astrocytoma assay at 10 ug/mL dose (Experiment #2) value may range from 31 to 50; format: functional, Mus musculus
Mus musculus [15] = experiment: The percent increase in life span on P388 cells which were inoculated intraperitoneally in CD2F1 mice at 800 mg/kg dose placed at ranking order 2; format: functional; settings: P388, ip, route intraperitoneal
Mus musculus [16] = experiment: Percent increase in life span (ILS) was measured on P388 cells which were inoculated intraperitoneally in CD2F1 mice; format: functional
[17] = Ability to inhibit the dibutyryl-cAMP-induced change of an immature glioma cell to a mature, differentiated astrocyte by in vitro astrocytoma assay at 10 ug/mL dose (Experiment #1) value may range from 6 to 15; format: functional, Mus musculus
Mus musculus [18] = experiment: The percent increase in life span on P388 cells which were inoculated intraperitoneally in CD2F1 mice at 400 mg/kg dose placed at ranking order 4; format: functional; settings: P388, ip, route intraperitoneal
Mus musculus [19] = experiment: The percent increase in life span on P388 cells which were inoculated intraperitoneally in CD2F1 mice at 400 mg/kg dose placed at ranking order 3; format: functional; settings: P388, ip, route intraperitoneal
Mus musculus [20] = experiment: The percent increase in life span on P388 cells which were inoculated intraperitoneally in CD2F1 mice at 200 mg/kg dose placed at ranking order 2; format: functional; settings: P388, ip, route intraperitoneal
Mus musculus [21] = experiment: The percent increase in life span on P388 cells which were inoculated intraperitoneally in CD2F1 mice at 400 mg/kg (tested in the same control) dose placed at ranking order 1; format: functional; settings: P388, ip, route intraperitoneal

C=CCOc1cc2c(cc1C(C)c1ccc(OC)cc1)OCO2 (configuration not stated)
Astrocyte reversal [1]: 5%
ILS at 200 mg/kg (Mus musculus [2]): 41%
Astrocyte reversal [3]: 5%
ILS at 800 mg/kg (Mus musculus [4]): 58%
ILS at 200 mg/kg (Mus musculus [5]): 43%
ILS at 400 mg/kg (Mus musculus [6]): 33%
Astrocyte reversal [7]: 70%
ILS at 200 mg/kg (Mus musculus [8]): 55%
ILS at 400 mg/kg (Mus musculus [9]): 39%
ILS at 100 mg/kg (Mus musculus [10]): 27%
Astrocyte reversal [11]: 50%
ILS at 200 mg/kg (Mus musculus [12]): 88%
ILS at 400 mg/kg (Mus musculus [13]): 39%
Astrocyte reversal [14]: 50%
ILS at 800 mg/kg (Mus musculus [15]): 84%
ILS (Mus musculus [16]): 88%
Astrocyte reversal [17]: 15%

CCCOc1cc2c(cc1C(C)c1ccc(OC)cc1)OCO2 (configuration not stated)
ILS at 400 mg/kg (Mus musculus [18]): 12%
ILS at 400 mg/kg (Mus musculus [19]): 14%
ILS (Mus musculus [16]): 30%
ILS at 200 mg/kg (Mus musculus [20]): 21%
ILS at 400 mg/kg (Mus musculus [21]): 30%
